Experimental data as given in PMC6120739 (ACS Omega, 2018).
Entries after “also recorded” stand apart in the source; their conditions may differ.

Tests used:
[1] = molecular target: PARP-1 (Homo sapiens, UniProt P09874); assay: PARP-1 radioligand binding; conditions: PARP-1 IC50, OVCAR8 cells, [125I]KX1 radioligand, ± SEM, n = 3
[2] = test system: UWB1.289 cells; assay: Cell viability assay; conditions: for EC50: UWB1289, read-out: UWB1.289 EC50; for cytotoxicity in BRCA1-null model, result in words: compared with AZD2461 and olaparib
[3] = molecular target: recombinant human P-gp (Homo sapiens, UniProt P08183); assay: Pgp-Glo assay; conditions: 20 µM compound, 1 hr at 37°C, normalized to Na3VO4
[4] = test system: UWB1.289 + BRCA1 cells; assay: Cell viability assay; assay type: cell-based; conditions: for EC50: UWB1289, read-out: UWB1.289 + BRCA1 EC50; for antiproliferative effect in BRCA1-restored UWB1.289, result in words: in contrast to olaparib and AZD2461

Chain of PARP-1 (P09874 whole entry): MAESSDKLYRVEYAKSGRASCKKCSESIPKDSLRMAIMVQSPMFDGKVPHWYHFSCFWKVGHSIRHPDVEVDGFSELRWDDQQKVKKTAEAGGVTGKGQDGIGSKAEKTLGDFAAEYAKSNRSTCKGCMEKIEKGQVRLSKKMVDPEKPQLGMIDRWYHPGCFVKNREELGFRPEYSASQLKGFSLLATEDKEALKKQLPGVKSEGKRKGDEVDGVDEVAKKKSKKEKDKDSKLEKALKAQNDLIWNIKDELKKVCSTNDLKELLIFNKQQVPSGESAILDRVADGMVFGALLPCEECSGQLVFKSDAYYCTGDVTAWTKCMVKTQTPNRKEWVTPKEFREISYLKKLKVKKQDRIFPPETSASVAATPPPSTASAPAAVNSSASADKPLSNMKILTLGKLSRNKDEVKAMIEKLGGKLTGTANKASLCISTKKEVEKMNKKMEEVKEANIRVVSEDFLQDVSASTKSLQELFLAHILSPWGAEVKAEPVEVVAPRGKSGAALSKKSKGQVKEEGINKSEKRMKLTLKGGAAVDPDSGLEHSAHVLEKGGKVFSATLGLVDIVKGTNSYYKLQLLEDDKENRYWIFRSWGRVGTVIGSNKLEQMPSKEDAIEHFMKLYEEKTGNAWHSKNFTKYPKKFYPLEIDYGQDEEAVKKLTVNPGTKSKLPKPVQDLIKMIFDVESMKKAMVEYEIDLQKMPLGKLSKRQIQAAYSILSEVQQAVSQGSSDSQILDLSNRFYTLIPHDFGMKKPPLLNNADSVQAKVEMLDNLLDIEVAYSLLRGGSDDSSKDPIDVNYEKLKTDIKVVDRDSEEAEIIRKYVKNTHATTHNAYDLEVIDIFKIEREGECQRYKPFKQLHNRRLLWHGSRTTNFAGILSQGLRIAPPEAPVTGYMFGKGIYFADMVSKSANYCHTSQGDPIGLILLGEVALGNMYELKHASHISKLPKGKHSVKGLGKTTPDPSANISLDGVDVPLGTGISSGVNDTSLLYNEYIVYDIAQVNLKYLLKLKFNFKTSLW
Chain of recombinant human P-gp (P08183 whole entry): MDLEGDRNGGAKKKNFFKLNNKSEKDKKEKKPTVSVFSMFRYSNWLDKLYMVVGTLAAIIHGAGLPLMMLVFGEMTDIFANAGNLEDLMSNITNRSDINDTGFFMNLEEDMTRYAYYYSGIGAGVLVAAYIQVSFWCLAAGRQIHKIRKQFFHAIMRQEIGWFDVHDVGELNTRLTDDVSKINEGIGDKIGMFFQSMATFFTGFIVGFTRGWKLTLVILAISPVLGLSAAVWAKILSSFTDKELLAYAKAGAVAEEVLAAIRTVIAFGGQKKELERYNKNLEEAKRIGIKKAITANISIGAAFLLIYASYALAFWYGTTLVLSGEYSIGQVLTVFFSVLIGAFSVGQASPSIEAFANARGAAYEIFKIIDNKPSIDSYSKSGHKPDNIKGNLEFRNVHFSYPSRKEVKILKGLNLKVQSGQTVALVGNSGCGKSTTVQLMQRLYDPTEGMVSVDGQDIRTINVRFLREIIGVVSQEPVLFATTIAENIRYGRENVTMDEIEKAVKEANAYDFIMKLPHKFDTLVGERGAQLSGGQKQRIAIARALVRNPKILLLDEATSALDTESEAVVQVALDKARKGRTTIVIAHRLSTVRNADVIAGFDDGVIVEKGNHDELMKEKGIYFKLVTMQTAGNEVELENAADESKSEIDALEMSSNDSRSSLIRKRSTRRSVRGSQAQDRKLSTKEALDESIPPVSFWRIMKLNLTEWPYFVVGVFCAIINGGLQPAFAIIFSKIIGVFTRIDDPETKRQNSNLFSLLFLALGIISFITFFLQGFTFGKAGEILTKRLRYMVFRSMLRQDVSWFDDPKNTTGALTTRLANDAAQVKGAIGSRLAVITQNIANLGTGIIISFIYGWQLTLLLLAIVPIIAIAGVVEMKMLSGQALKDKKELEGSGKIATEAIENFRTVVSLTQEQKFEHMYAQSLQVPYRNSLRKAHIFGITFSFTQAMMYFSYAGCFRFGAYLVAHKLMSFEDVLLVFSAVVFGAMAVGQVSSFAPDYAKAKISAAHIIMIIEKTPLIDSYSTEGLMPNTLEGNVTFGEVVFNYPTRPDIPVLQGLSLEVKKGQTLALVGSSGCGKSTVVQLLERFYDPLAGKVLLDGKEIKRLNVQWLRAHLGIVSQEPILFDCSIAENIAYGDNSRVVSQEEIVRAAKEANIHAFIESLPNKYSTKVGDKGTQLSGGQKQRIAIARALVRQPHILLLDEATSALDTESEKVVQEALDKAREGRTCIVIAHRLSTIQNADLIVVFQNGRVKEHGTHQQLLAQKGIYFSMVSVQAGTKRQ

IC50 [1] [nM]	Structure (SMILES)	EC50 [2] [nM]	cytotoxicity in BRCA1-null model, result in words [2]	P-gp ATPase interaction (luminescence), result in words [3]	EC50 [4] [nM]	antiproliferative effect in BRCA1-restored UWB1.289, result in words [4]
< 10	COC1CN(C(=O)c2cc(Cc3n[nH]c(=O)c4ccccc34)ccc2F)C1 [Compound 2]	2120 ± 200	less cytotoxic than both AZD2461 and olaparib	increase in luminescence	13400 ± 700	poor antiproliferative effects
< 10	COC1CCN(C(=O)c2cc(Cc3n[nH]c(=O)c4ccccc34)ccc2F)C1 (stereo not drawn) [Compound 3]	1500 ± 400	less cytotoxic than both AZD2461 and olaparib	increase in luminescence; also recorded: weakest activators of P-gp ATPase; also recorded: least activating agents of P-gp ATPase	8580 ± 1100	poor antiproliferative effects
	COC1CCN(C(=O)c2cc(Cc3n[nH]c(=O)c4ccccc34)ccc2F)CC1 [Compound 4, AZD2461, reference compound]	890 ± 700			2280 ± 300	
< 10	COC1CCCN(C(=O)c2cc(Cc3n[nH]c(=O)c4ccccc34)ccc2F)CC1 (stereo not drawn) [Compound 5]	2840 ± 1400	less cytotoxic than both AZD2461 and olaparib	increase in luminescence; also recorded: weakest activators of P-gp ATPase	3490 ± 200	poor antiproliferative effects
	COC1CC(NC(=O)c2cc(Cc3n[nH]c(=O)c4ccccc34)ccc2F)C1 (stereo not drawn) [Compound 6]	10100 ± 1500		only P-gp substrate in this study	6620 ± 4300	
20.8 ± 1.1	CO[C@H]1C[C@H](NC(=O)c2cc(Cc3n[nH]c(=O)c4ccccc34)ccc2F)C1 [Compound 7]	1940 ± 1100			2810 ± 1400	
107 ± 1.1	CO[C@H]1C[C@@H](NC(=O)c2cc(Cc3n[nH]c(=O)c4ccccc34)ccc2F)C1 [Compound 8]	4350 ± 1700			13900 ± 1100	
49.5 ± 1.1	COC1CCC(NC(=O)c2cc(Cc3n[nH]c(=O)c4ccccc34)ccc2F)C1 (stereo not drawn) [Compound 9]	1320 ± 500		poor activator of P-pg ATPase; also recorded: least activating agents of P-gp ATPase	9310 ± 1000	
226.3 ± 1.1	COC1CCC(NC(=O)c2cc(Cc3n[nH]c(=O)c4ccccc34)ccc2F)CC1 (stereo not drawn) [Compound 10]	2420 ± 900			6160 ± 1300	
	O=C(c1cc(Cc2n[nH]c(=O)c3ccccc23)ccc1F)N1CCN(C(=O)C2CC2)CC1 [olaparib, reference compound]	900 ± 500		acts more of a P-gp ATPase activator, than 4	1970 ± 400	
